Results published in patent US6737383B1, “Herbicidal oxadiazolidines” (priority 1999, dated 2004).

How the values were obtained:
wild oat = experiment: Test B pre/postemergence wild oat; assay type: in vivo, Avena fatua
Procedure, shortened: (§1)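 Test chemicals in a non-phytotoxic solvent mixture with surfactant were sprayed preemergence onto planted seeds and postemergence onto plants 2 to 18 cm tall (1- to 4-leaf stage). After twelve to sixteen days in a greenhouse, injury was visually rated against untreated controls from 0 (no effect) to 10 (complete control).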

cocklebur = experiment: Test B pre/postemergence cocklebur; assay type: in vivo, Xanthium strumarium
Procedure, shortened: as §1

pigweed = experiment: Test B pre/postemergence pigweed; assay type: in vivo, Amaranthus retroflexus
Procedure, shortened: as §1

morningglory = experiment: Test B pre/postemergence morningglory; assay type: in vivo, Ipomoea hederacea
Procedure, shortened: as §1

giant foxtail = experiment: Test B pre/postemergence giant foxtail; assay type: in vivo, Setaria faberii
Procedure, shortened: as §1

corn = experiment: Test B pre/postemergence corn; assay type: in vivo, Zea mays
Procedure, shortened: as §1

soybean = experiment: Test B pre/postemergence soybean; assay type: in vivo, Glycine max
Procedure, shortened: as §1

bedstraw = experiment: Test B pre/postemergence bedstraw; assay type: in vivo, Galium aparine
Procedure, shortened: as §1

blackgrass = experiment: Test B pre/postemergence blackgrass; assay type: in vivo, Alopecurus myosuroides
Procedure, shortened: as §1

rape = experiment: Test B pre/postemergence rape; assay type: in vivo, Brassica napus
Procedure, shortened: as §1

velvetleaf = experiment: Test B pre/postemergence velvetleaf; assay type: in vivo, Abutilon theophrasti
Procedure, shortened: as §1

sugar beet = experiment: Test B pre/postemergence sugar beet; assay type: in vivo, Beta vulgaris
Procedure, shortened: as §1

wheat = experiment: Test B pre/postemergence wheat; assay type: in vivo, Triticum aestivum
Procedure, shortened: as §1

surinam grass = experiment: Test B pre/postemergence surinam grass; assay type: in vivo, Brachiaria decumbens
Procedure, shortened: as §1

purple nutsedge = experiment: Test B pre/postemergence purple nutsedge; assay type: in vivo, Cyperus rotundus
Procedure, shortened: as §1

crabgrass = experiment: Test B pre/postemergence crabgrass; assay type: in vivo, Digitaria sanguinalis
Procedure, shortened: as §1

[1] = Preemergence, Rate 62 g/ha, scale of 0 to 10 where 0 is no effect and 10 is complete control
[2] = Preemergence, Rate 125 g/ha, scale of 0 to 10 where 0 is no effect and 10 is complete control
[3] = Preemergence, Rate 250 g/ha, scale 0 (no effect) to 10 (complete control)
[4] = Rate 500 g/ha, Preemergence, scale 0 to 10 (0 no effect, 10 complete control)
[5] = Postemergence, Rate 62 g/ha, scale 0 to 10, 0 is no effect, 10 is complete control
[6] = Postemergence, Rate 125 g/ha, scale of 0 to 10 where 0 is no effect and 10 is complete control
[7] = Rate 62 g/ha, Preemergence, scale 0 to 10
[8] = Rate 250 g/ha, Postemergence, scale 0 to 10, 0 is no effect, 10 is complete control
[9] = Rate 500 g/ha, Postemergence, scale 0 to 10, 0 is no effect, 10 is complete control

## COC(CCl)n1c(=O)on(C(=O)N(c2ccccc2)C(C)C)c1=O (stereo not shown) [Compound 735]
Wild oat; [1]
  Wild oats plant response rating: 6
Wild oat; [2]
  Plant response rating, Wild oats: 8
Wild oat; [3]
  Wild oats plant response rating: 8
Wild oat; [4]
  Wild oats plant response rating: 10
cocklebur; [1]
  Cocklebur plant response rating: 0
cocklebur; [2]
  Plant response rating, Cocklebur: 0
cocklebur; [3]
  Cocklebur plant response rating: 0
cocklebur; [4]
  Cocklebur plant response rating: 0
pigweed; [1]
  Redroot pigweed plant response rating: 5
pigweed; [2]
  Plant response rating, Redroot pigweed: 7
pigweed; [3]
  Redroot pigweed plant response rating: 8
pigweed; [4]
  Redroot pigweed plant response rating: 9
morningglory; [1]
  Morningglory plant response rating: 0
morningglory; [2]
  Plant response rating, Morningglory: 0
morningglory; [3]
  Morningglory plant response rating: 2
morningglory; [4]
  Morningglory plant response rating: 2
Giant foxtail; [1]
  Giant foxtail plant response rating: 9
Giant foxtail; [2]
  Plant response rating, Giant foxtail: 10
Giant foxtail; [3]
  Giant foxtail plant response rating: 10
Giant foxtail; [4]
  Giant foxtail plant response rating: 10
corn; [1]
  Corn plant response rating: 0
corn; [2]
  Plant response rating, Corn: 6
corn; [3]
  Corn plant response rating: 8
corn; [4]
  Corn plant response rating: 9
soybean; [1]
  Soybean plant response rating: 0
soybean; [2]
  Plant response rating, Soybean: 0
soybean; [3]
  Soybean plant response rating: 0
soybean; [4]
  Soybean plant response rating: 0
bedstraw; [1]
  Bedstraw plant response rating: 0
bedstraw; [2]
  Plant response rating, Bedstraw: 0
bedstraw; [3]
  Bedstraw plant response rating: 0
bedstraw; [4]
  Bedstraw plant response rating: 0
blackgrass; [1]
  Blackgrass plant response rating: 8
blackgrass; [2]
  Plant response rating, Blackgrass: 10
blackgrass; [3]
  Blackgrass plant response rating: 10
blackgrass; [4]
  Blackgrass plant response rating: 10
rape; [1]
  Rape plant response rating: 1
rape; [2]
  Plant response rating, Rape: 6
rape; [3]
  Rape plant response rating: 8
rape; [4]
  Rape plant response rating: 8
velvetleaf; [1]
  Velvetleaf plant response rating: 0
velvetleaf; [2]
  Plant response rating, Velvetleaf: 0
velvetleaf; [3]
  Velvetleaf plant response rating: 3
velvetleaf; [4]
  Velvetleaf plant response rating: 3
Sugar beet; [1]
  Sugarbeets plant response rating: 0
Sugar beet; [2]
  Plant response rating, Sugarbeets: 2
Sugar beet; [3]
  Sugarbeets plant response rating: 6
Sugar beet; [4]
  Sugarbeets plant response rating: 7
wheat; [1]
  Wheat plant response rating: 0
wheat; [2]
  Plant response rating, Wheat: 0
wheat; [4]
  Wheat plant response rating: 2
Surinam grass; [1]
  B. signalgrass plant response rating: 7
Surinam grass; [2]
  Plant response rating, B. signalgrass: 8
Surinam grass; [3]
  B. signalgrass plant response rating: 9
Surinam grass; [4]
  B. signalgrass plant response rating: 10
Purple nutsedge; [1]
  Nutsedge plant response rating: 0
Purple nutsedge; [3]
  Nutsedge plant response rating: 0
crabgrass; [1]
  Crabgrass plant response rating: 10
crabgrass; [2]
  Plant response rating, Crabgrass: 10
crabgrass; [3]
  Crabgrass plant response rating: 10
crabgrass; [4]
  Crabgrass plant response rating: 10

## CC(C)N(C(=O)n1oc(=O)n(CC(F)F)c1=O)c1ccccc1 [Compound 746]
Wild oat; [5]
  Plant response rating, Wild oats: 0
Wild oat; [6]
  Wild oats plant response rating: 2
Wild oat; [2]
  Plant response rating, Wild oats: 10
Wild oat; [3]
  Wild oats plant response rating: 10
Wild oat; [7]
  Wild oats plant response rating: 7
Wild oat; [8]
  Wild oats plant response rating: 6
Wild oat; [9]
  Wild oats plant response rating: 7
cocklebur; [5]
  Plant response rating, Cocklebur: 0
cocklebur; [6]
  Cocklebur plant response rating: 2
cocklebur; [2]
  Plant response rating, Cocklebur: 0
cocklebur; [3]
  Cocklebur plant response rating: 0
cocklebur; [8]
  Cocklebur plant response rating: 2
cocklebur; [9]
  Cocklebur plant response rating: 4
cocklebur; [4]
  Cocklebur plant response rating: 4
pigweed; [5]
  Plant response rating, Redroot pigweed: 6
pigweed; [6]
  Redroot pigweed plant response rating: 5
pigweed; [2]
  Plant response rating, Redroot pigweed: 10
pigweed; [3]
  Redroot pigweed plant response rating: 10
pigweed; [7]
  Redroot pigweed plant response rating: 10
pigweed; [8]
  Redroot pigweed plant response rating: 8
pigweed; [9]
  Redroot pigweed plant response rating: 9
morningglory; [5]
  Plant response rating, Morningglory: 4
morningglory; [6]
  Morningglory plant response rating: 8
morningglory; [2]
  Plant response rating, Morningglory: 4
morningglory; [3]
  Morningglory plant response rating: 6
morningglory; [7]
  Morningglory plant response rating: 0
morningglory; [8]
  Morningglory plant response rating: 10
morningglory; [9]
  Morningglory plant response rating: 10
morningglory; [4]
  Morningglory plant response rating: 8
Giant foxtail; [5]
  Plant response rating, Giant foxtail: 6
Giant foxtail; [6]
  Giant foxtail plant response rating: 8
Giant foxtail; [2]
  Plant response rating, Giant foxtail: 10
Giant foxtail; [3]
  Giant foxtail plant response rating: 10
Giant foxtail; [7]
  Giant foxtail plant response rating: 10
Giant foxtail; [8]
  Giant foxtail plant response rating: 9
Giant foxtail; [9]
  Giant foxtail plant response rating: 9
Giant foxtail; [4]
  Giant foxtail plant response rating: 10
corn; [5]
  Plant response rating, Corn: 0
corn; [6]
  Corn plant response rating: 0
corn; [2]
  Plant response rating, Corn: 3
corn; [3]
  Corn plant response rating: 3
corn; [7]
  Corn plant response rating: 0
corn; [8]
  Corn plant response rating: 4
corn; [9]
  Corn plant response rating: 5
corn; [4]
  Corn plant response rating: 4
soybean; [5]
  Plant response rating, Soybean: 2
soybean; [6]
  Soybean plant response rating: 3
soybean; [2]
  Plant response rating, Soybean: 0
soybean; [3]
  Soybean plant response rating: 5
soybean; [7]
  Soybean plant response rating: 0
soybean; [8]
  Soybean plant response rating: 4
soybean; [9]
  Soybean plant response rating: 6
soybean; [4]
  Soybean plant response rating: 5
bedstraw; [6]
  Bedstraw plant response rating: 7
bedstraw; [7]
  Bedstraw plant response rating: 8
bedstraw; [8]
  Bedstraw plant response rating: 8
bedstraw; [9]
  Bedstraw plant response rating: 9
blackgrass; [5]
  Plant response rating, Blackgrass: 5
blackgrass; [6]
  Blackgrass plant response rating: 7
blackgrass; [2]
  Plant response rating, Blackgrass: 9
blackgrass; [3]
  Blackgrass plant response rating: 10
blackgrass; [7]
  Blackgrass plant response rating: 9
blackgrass; [8]
  Blackgrass plant response rating: 8
blackgrass; [9]
  Blackgrass plant response rating: 8
rape; [5]
  Plant response rating, Rape: 4
rape; [6]
  Rape plant response rating: 4
rape; [2]
  Plant response rating, Rape: 9
rape; [3]
  Rape plant response rating: 9
rape; [7]
  Rape plant response rating: 2
rape; [8]
  Rape plant response rating: 7
rape; [9]
  Rape plant response rating: 7
velvetleaf; [5]
  Plant response rating, Velvetleaf: 2
velvetleaf; [6]
  Velvetleaf plant response rating: 6
velvetleaf; [2]
  Plant response rating, Velvetleaf: 6
velvetleaf; [3]
  Velvetleaf plant response rating: 7
velvetleaf; [7]
  Velvetleaf plant response rating: 4
velvetleaf; [8]
  Velvetleaf plant response rating: 6
velvetleaf; [9]
  Velvetleaf plant response rating: 7
velvetleaf; [4]
  Velvetleaf plant response rating: 8
Sugar beet; [5]
  Plant response rating, Sugarbeets: 0
Sugar beet; [6]
  Sugarbeets plant response rating: 0
Sugar beet; [2]
  Plant response rating, Sugarbeets: 7
Sugar beet; [3]
  Sugarbeets plant response rating: 7
Sugar beet; [7]
  Sugarbeets plant response rating: 5
Sugar beet; [8]
  Sugarbeets plant response rating: 4
Sugar beet; [9]
  Sugarbeets plant response rating: 4
wheat; [5]
  Plant response rating, Wheat: 0
wheat; [6]
  Wheat plant response rating: 4
wheat; [2]
  Plant response rating, Wheat: 7
wheat; [3]
  Wheat plant response rating: 8
wheat; [7]
  Wheat plant response rating: 6
wheat; [9]
  Wheat plant response rating: 6
Surinam grass; [5]
  Plant response rating, B. signalgrass: 3
Surinam grass; [6]
  B. signalgrass plant response rating: 4
Surinam grass; [1]
  B. signalgrass plant response rating: 7
Surinam grass; [2]
  Plant response rating, B. signalgrass: 9
Surinam grass; [3]
  B. signalgrass plant response rating: 9
Surinam grass; [8]
  B. signalgrass plant response rating: 6
Surinam grass; [9]
  B. signalgrass plant response rating: 8
Purple nutsedge; [5]
  Plant response rating, Nutsedge: 0
Purple nutsedge; [6]
  Nutsedge plant response rating: 0
Purple nutsedge; [2]
  Plant response rating, Nutsedge: 3
Purple nutsedge; [7]
  Nutsedge plant response rating: 0
Purple nutsedge; [8]
  Nutsedge plant response rating: 2
Purple nutsedge; [9]
  Nutsedge plant response rating: 4
Purple nutsedge; [4]
  Nutsedge plant response rating: 5
crabgrass; [5]
  Plant response rating, Crabgrass: 7
crabgrass; [6]
  Crabgrass plant response rating: 9
crabgrass; [2]
  Plant response rating, Crabgrass: 10
crabgrass; [3]
  Crabgrass plant response rating: 10
crabgrass; [7]
  Crabgrass plant response rating: 9
crabgrass; [8]
  Crabgrass plant response rating: 9
crabgrass; [9]
  Crabgrass plant response rating: 10
crabgrass; [4]
  Crabgrass plant response rating: 10
